# Assay results as given in patent US20240050590A1, “METHODS AND COMPOSITIONS TO REGULATE CHOLESTEROL EFFLUX TO PREVENT, TREAT, OR CURE MACULAR DEGENERATION” (The Trustees of Columbia University in the City of New York, priority 2021, published 2024).
# Entries after “also recorded” stand apart in the source; their conditions may differ.
# Assays:
# Format in all cases: cell-based, human
# [1] = tested on: CES1 expression in EFEMP1^WT iRPE cells; test: Western blot of CES1 expression in normal (EFEMP1^WT) iRPE cells after treatment with agonists and antagonists; conditions: EFEMP1^WT iRPE cells from healthy donor, 72 h treatment, vs untreated control; LY294002 10 μM, GW4064 5 μM, GW3965 3 μM
# Experimental: (§1) Immunoblot To verify the differentiation of iRPE, CRALBP (Ab15051, Abcam) and RPE65 (401.8B11.3D9, Novas Biologicals) antibodies were used to detect mature RPE markers including CRALBP and RPE65 in iRPE cell lysates via western blot. To determine EFEMP1 expression in iRPE, both cell lysates and culture supernatant were assayed using anti-EFEMP1 antibody (MA5-25740, Thermo Fisher Scientific). To detect CES1 expression in iRPE, anti-CES1 antibody (AF4920, R&D) was used. Anti-alpha tubulin (T5168, Sigma Aldrich), anti-beta actin (A5316, Sigma), or anti-GAPDH (5174, Cell Signaling) antibodies were used to detect house-keeping proteins. The cell lysates were collected using RIPA buffer (Thermo Fisher Scientific).
# To understand the upstream regulators of CES1 expression, the iRPE cells from healthy donor were treated with Gefitnib ([…], Sigma Aldrich), ML385 ([…], Sigma Aldrich), LY294002 (10 μM, Sigma Aldrich), GW4064 (5 μM, Sigma Aldrich), or GW3965 (3 μM, Sigma Aldrich) for 72 h. Anti-CES1 (AF4920, R&D) and anti-alpha tubulin (T5168, Sigma Aldrich) antibodies were used to detect CES1 and tubulin expression, respectively. The signal was detected using Immobilon Western Chemiluminescent HRP Substrate (Millipore). The blot was quantified using ImageJ for signal intensity.
# iRPE cells [2] = test: Nile red staining and quantification of intracellular lipid droplets in iRPE cells; parameters: amount of lipid droplets: dose or concentration left out as unconfirmed; conditions: EFEMP1^R345W iRPE, 2 weeks, vs untreated
# Experimental: Nile red staining To stain the intracellular neutral lipid, the iRPE cell cultures were treated with […] Nile red (Sigma Aldrich) for 30 min at 37° C. The cells were washed with PBS three times before microscopy observation.
# Since mature iRPE culture is usually 100% confluent, the Nile red-positively stained lipid droplets were quantified using ImageJ in a fixed area of 90,000 square micrometers for the number and size of Nile red-positive signals. Fluorescent particles smaller than 0.0001 square micrometers was excluded as noise.
# (§2) Lentiviral transduction For the knockdown of CES1 (MIM: 114835) in iRPE cells, the iRPE cells from healthy donor were cultured in 6-well plate. The lentiviral particles carrying CES1 shRNA (Locus ID 1066, Origene) were transduced into the iRPE cells at a MOI of 10 overnight. To establish fair comparison, the control iRPE cells were transduced with viral particles expressing scramble shRNA. The medium was refreshed the following day, and the cell were incubated for 7 days before analysis. To achieve overexpression of CES1 in iRPE cells, lentiviral particles (Origene) expressing CMV promoter-driven CES1 (GenBank: NM_001025194) were transduced following the same procedure.
# [3] = tested on: CES1 expression in EFEMP1^R345W iRPE cells; test: Western blot of CES1 expression in EFEMP1^R345W iRPE cells treated with EGF; conditions: 100 nM EGF, 72 h incubation, vs untreated cells
# Experimental: as §1
# iRPE cells [4] = test: Cholesterol efflux assay in iRPE cells; parameters: dose or concentration left out as unconfirmed; conditions: EFEMP1^R345W iRPE
# Experimental: Cholesterol efflux assay Cholesterol Efflux Assay Kit (Abcam) was used to determine the cholesterol efflux rate in iRPE according to the manufacturer's protocol. In brief, fluorescence-labeled cholesterol was added to iRPE culture and incubated overnight. On the next day, the cells were washed twice with PBS, and the efflux of cholesterol was induced by 2% human serum. At designated time points, the culture supernatant and cell lysate were collected and measured by fluorescence at Ex/Em: 482/515 nm. The percentage of cholesterol efflux was calculated by fluorescence intensity of media fluorescence/(fluorescence intensity of cell lysate+media)×100.
# as §2
compound,measurement,setting,value
O=C(O)Cc1cccc(OCCCN(Cc2cccc(C(F)(F)F)c2Cl)CC(c2ccccc2)c2ccccc2)c1 [GW3965],CES1 expression level (western blot),[1],no change in CES1 expression
CC(C)c1onc(-c2c(Cl)cccc2Cl)c1COc1ccc(/C=C/c2cccc(C(=O)O)c2)c(Cl)c1 [GW4064],CES1 expression level (western blot),[1],no change in CES1 expression
Cc1ccccc1C(=O)N1CCc2cc(-c3nc(NC(=O)Cc4ccc5c(c4)OCO5)sc3C)ccc21 [ML385],CES1 expression level (western blot),[1],only LY294002 reduced CES1 expression
COc1cc2ncnc(Nc3ccc(F)c(Cl)c3)c2cc1OCCCN1CCOCC1 [gefitinib],CES1 expression level (western blot),[1],remarkably reduced
epidermal growth factor [EGF],lipid droplet size,iRPE cells [2]; 100 mM EGF,not obvious
same,amount of lipid droplets,iRPE cells [2]; EGF,significant decrease; also recorded: ameliorates intracellular lipid droplet accumulation
same,CES1 level (western blot),[3],remarkably higher
same,cholesterol efflux (in words),"iRPE cells [4]; EGF for two weeks, vs untreated",improve cholesterol efflux
same,increase in cholesterol efflux,"iRPE cells [4]; EGF, 2 weeks, vs untreated control",26%
